From US6524999B2, “Growth inhibitors against algae and moss” (Kagome Kabushiki Kaisha, priority 2000, dated 2003)

System: algae (Chlamydomonas, Scenedesumus, Actinastrum, Ulothrix, Oscillatoria, Spirogyra, Pleurotaenium, Stichoccus and Chlorella)
Experiment: Hydroponic Culture Test No. 1: algae disks immersed in test nutrient solutions, visual examination of algae growth
Format: cell-based, algae collected from hydroponic culture of tomato plants
Design: key: +: Algae growth was clearly observed; −: Algae growth was not observed
Conditions: 7 days, 250° C., continuous light 2500 lux
Procedure: Algae which grew in hydroponic culture of tomato plants inside a greenhouse provided with a hydroponic culture system were collected. A control nutrient solution was prepared by dissolving in 1 liter of water 0.625 g, 0.417 g, 0.042 g and 0.029 g respectively of Otsuka House Nos. 1, 2, 3 and 5 (tradenames of products by Otsuka Chemical Co., Ltd.) Identified in the collected algae were the following nine kinds: Chlamydomonas, Scenedesumus, Actinastrum, Ulothrix, Oscillatoria, Spirogyra, Pleurotaenium, Stichoccus and Chlorella.
The algae thus collected were filtered by using a filtering net with opening diameter of 53 μm. After the filtrate was buried inside the aforementioned control nutrient solution containing agar by 0.8 weight %, disks were cut out therefrom by means of a cork borer. Test nutrient solutions which were individually prepared by adding indoleacetic acid, 3-indole propionic acid or 3-(3-indolyl) butyric acid shown by Formula 1 at different concentrations to the control nutrient solution, and after these disks were immersed individually in these test nutrient solutions for 7 days at […] under a continuous illumination of light at 2500 lux, the growth of algae was visually examined.

Measured: growth of algae (visual)

O=C(O)Cc1c[nH]c2ccccc12 [IAA, indoleacetic acid]
+: Concentration 0.1 mg/liter | Concentration 0.5 mg/liter | Concentration 1 mg/liter | Concentration 5 mg/liter | Concentration 10 mg/liter | Concentration 25 mg/liter | Concentration 50 mg/liter

CC(CC(=O)O)c1c[nH]c2ccccc12 (stereo not drawn) [IBA, 3-(3-indolyl) butyric acid]
+: Concentration 0.1 mg/liter | Concentration 0.5 mg/liter | Concentration 1 mg/liter | Concentration 5 mg/liter
−: Concentration 10 mg/liter | Concentration 25 mg/liter | Concentration 50 mg/liter

O=C(O)CCc1c[nH]c2ccccc12 [IPA, 3-indole propionic acid]
+: Concentration 0.1 mg/liter | Concentration 0.5 mg/liter | Concentration 1 mg/liter | Concentration 5 mg/liter | Concentration 10 mg/liter | Concentration 25 mg/liter | Concentration 50 mg/liter
